Measured values taken from patent publication US20260083853A1, “CD70 ANTIBODY DRUG CONJUGATES AND METHODS OF USING THE SAME” (Genmab A/S, priority 2022, published 2026).

System: human CD70-expressing tumor cells (Raji, Caki-1, 786-O)
Experiment: In vitro cytotoxicity (CTG, 96 h), all cell lines
Assay type: cell-based
Experimental: Raji (ATCC, CCL-86), Caki-1 (Cobioer, CBP60448), and 786-O (BNCC, BNCC338472) were cultured in CO2 thermostatic incubator at 37° C. with 5% CO2 in standard conditions. Cells were sub-cultured every 1-2 days, digested with 0.25% trypsin and passaged with a suitable density. When the cells were in the logarithmic growth phase and the amount meeting the assay's demand, cells were collected and plated onto 96-well solid white flat bottom plates for assay. One day later test articles (2E7 antibody or 2E7-LD038 conjugate ranging from 2 μM to 0.1 nM, or exatecan ranging from 20 μM to 0.03 nM) were added to the cells. Plates were then incubated at 37° C. for 96 h. Cell Titer Glo (CTG) (40 μl per well) was subsequently added to the plates. Luciferase reading was collected 5 min after and analyzed by Microplate readers. All readings were normalized as percentage of viable cells in the untreated control wells and the IC50 values were calculated by Prism software.

## CC[C@@]1(O)C(=O)OCc2c1cc1n(c2=O)Cc2c-1nc1cc(F)c(C)c3c1c2[C@@H](N)CC3 [Exatecan, exatecan]
  cytotoxicity: cytotoxic on all cell lines
